Values quoted from earlier work, collected in patent US12251467B2, “Vaginal hydrogel for delivery of therapeutics” (priority 2018, dated 2025).
≈ marks a conversion by molar mass, not a printed value.

solubility in water: 100 µg/mL (≈ 363 µM)
SMILES: Cc1ncc([N+](=O)[O-])n1CCOC(=O)c1ccccc1 [metronidazole benzoate]
